According to patent US10238111B2, “Fungicidal compositions” (Dow AgroSciences LLC, priority 2014, dated 2019):

Columns and labels:
Assay type in all cases: physicochemical
[1] = Approximate (relative) solubility of active ingredients in organic solvents at ambient temperature; conditions: 0.2 g Compound A mixed with 1.38 g cyclohexanone
Experimental: The approximate solubility of Compound A was determined by mixing a known mass of the active ingredient with an increasing mass of each solvent at ambient temperature. […] The solubility of Compound A in the solvents used in this screening procedure was generally classified within the following concentration ranges: […]

[2] = Solubility of Compound A and prothioconazole in benzyl acetate/AMD810 blends at 10° C. (HPLC); conditions: both actives saturated
Experimental: A study of the Compound A and prothioconazole solubility in blends of benzyl acetate/AMD810 was conducted. To each solvent blend both actives were added until each was saturated and the resulting mixtures were then stored at 10° C. until equilibrium was obtained. Aliquots of the supernatant layer were taken from each sample, filtered (0.45 μm mesh) and analyzed by HPLC to determine the solution concentration of each active in the blends.

[3] = Accelerated storage stability of Compound A in liquid compositions, 2 weeks at 54° C. (HPLC)
Experimental: The test compositions were prepared in a manner similar to that described in Example 1 using one or more of Compound A, prothioconazole, pyraclostrobin, benzyl acetate, and AMD 810, and a third solvent chosen from cyclohexanone, acetophenone, 2-heptanone, 2-heptanal, oleyl alcohol or 2-ethylhexanol.

COc1ccnc(C(=O)N[C@H]2COC(=O)[C@H](Cc3ccccc3)[C@@H](OC(=O)C(C)C)[C@H](C)OC2=O)c1OCOC(=O)C(C)C [Compound A, propanoic acid, 2-methyl-, [[4-methoxy-2-[[[(3S,7R,8R,9S)-9-methyl-8-(2-methyl-1-oxopropoxy)-2,6-dioxo-7-(phenylmethyl)-1,5-dioxonan-3-yl]amino]carbonyl]-3-pyridinyl]oxy]methyl ester]
clear solution comprising Compound A [1]: 12.6 % w/w
Compound A Solubility at 10° C. ([2]; benzyl acetate to AMD810 in blend 0 wt %): 3.3 % w/w
Compound A Solubility at 10° C. ([2]; benzyl acetate to AMD810 in blend 20 wt %): 4.3 % w/w
Compound A Solubility at 10° C. ([2]; benzyl acetate to AMD810 in blend 40 wt %): 6.5 % w/w
Compound A Solubility at 10° C. ([2]; benzyl acetate to AMD810 in blend 60 wt %): 11.0 % w/w
Compound A Solubility at 10° C. ([2]; benzyl acetate to AMD810 in blend 80 wt %): 12.0 % w/w
Compound A after Storage (% retention) ([3]; wt %: Compound A 3.4, AMD 810 96.0, third solvent none): 49^ % retention
Compound A after Storage (% retention) ([3]; wt %: Compound A 4.9, benzyl acetate 94.1, third solvent none): 85^ % retention
Compound A after Storage (% retention) ([3]; wt %: Compound A 12.0, cyclohexanone 85.7): 96^ % retention
